Source: patent publication US5407918A, “16-membered macrolide derivatives and process for producing the same” (Meiji Seika Kaisha, Ltd., priority 1992, dated 1995)
In brackets after ≈: the same amount, converted by molar mass.

Experiments:
test strains = assay: antimicrobial activity in vitro, comparison in words; format: cell-based; conditions: for antimicrobial activity in vitro compared with MOM: data are not shown; for antimicrobial activity compared with LM-A7: except on Haemophilus influenzae, Tables 2 and 3
Experimental: (§1) Antimicrobial activities of the compounds of the present invention were determined by measuring minimum inhibitory concentration (MIC). Minimum inhibitory concentration was determined by the agar plate dilution method in the following manner.
(§2) Test strains were subjected to seed culture using Sensitivity test broth (STB, Nissui Pharmaceutical) except that the strains belonging to the genus Streptococcus, Branhamella and Haemophilus were cultured on blood agar plate. A 5 μl portion of cell suspension of the test strains having about 10^6 CFU/ml was inoculated into Sensitivity disk agar (SDA, Nissui Pharmaceutical) supplemented with 5% horse blood and incubated at 37° C. for 20 hours. Then, MIC was measured. For comparison, MDM and leucomycin A7 (LM-A7) was also tested.

Gram-positive bacteria = assay: antimicrobial activity in vitro (summary in words); format: cell-based; conditions: from Tables 2 and 3
Experimental: as §1, §2

[1] = concentration in serum after oral administration to mice, bioassay; format: in vivo, mice (Jcl:ICR)
Experimental: The compound (3) was mixed with a 0.2% solution of carboxymethylcellulose to give a concentration of 4 mg/ml and a 1 ml portion of the resulting emulsion was orally administered to 4-week-old male Jcl:ICR mice. Blood was collected from armpit of the mice 30, 60, 120, 240 and 360 minutes after the administration of the test compound (n=2). The collected blood was allowed to stand at room temperature for about 2 hours and centrifuged for 20 minutes with a centrifuge (KUBOTA KS-5000P) to obtain serum. To the serum was added an equivalent volume of 50% CH3 CN-50 mM phosphate (1:1 by volume) buffer (pH 7.0). The resulting mixture served as a serum sample. The concentration of the test compound in the serum sample was measured by the following bioassay method.
One hundred […] of the serum sample was poured into a hole made on a test plate containing 40 ml of MRAPJ medium (6 g/l peptone, 3 g/l yeast extract, 1.5 g/l meat extract, 1 g/l glucose and 15 g/l agar, pH 6.5) supplemented with a solution of M. Iuteus ATCC9341 (1%) and incubated at 32° C. for 18 hours and MIC was measured based on the calibration curve. MOM, MDM and RKM were also tested for comparison. […] Thus a long-pending problem of "low concentration in serum" of 16-membered macrolide antibiotics has been solved. […] Thus this compound is considered as a macrolide derivative showing new pharmacokinetics.
Further, a pharmacokinetics test on the compound (12) of the present invention is carried out in the same manner as described above. Namely, 200 mg/kg of the compound (12) is orally administered to mice and the concentration of this compound in the serum is determined by a bioassay method with the use of M. luteus as a test strain. […] The disadvantage of 16-membered ring macrolide antibiotics, which has been pointed out for a long time, has been thus overcome.

S. Pyogenes Cook = assay: MIC, agar plate dilution method; format: cell-based; conditions: Streptococcus pyogenes, 37° C., 20 hours, read-out: Antimicrobial activity (MIC)
Experimental: as §1, §2

E. faecalis W-73 = assay: MIC, agar plate dilution method; format: cell-based; conditions: Enterococcus faecalis, W73; E. faecalis W-73; 37° C., 20 hours; read-out: Antimicrobial activity (MIC)
Experimental: as §1, §2

B. catarrhalis W-0500 = assay: MIC, agar plate dilution method; format: cell-based; conditions: Moraxella catarrhalis, W0500, 37° C., 20 hours, read-out: Antimicrobial activity (MIC)
Experimental: as §1, §2

S. aureus MS15009/pMS99 = assay: MIC, agar plate dilution method; format: cell-based; conditions: Staphylococcus aureus, MS15009/PMS99, 20 h, read-out: Antimicrobial activity (MIC)
Experimental: as §1, §2

S. pneumoniae IP692 = assay: MIC, agar plate dilution method; format: cell-based; conditions: Streptococcus pneumoniae; S. pneumoniae IP692; 37° C., 20 hours; read-out: Antimicrobial activity (MIC)
Experimental: as §1, §2

S. aureus M126 = assay: MIC, agar plate dilution method; format: cell-based; conditions: Staphylococcus aureus; S. aureus M126; 37° C., 20 hours; read-out: Antimicrobial activity (MIC)
Experimental: as §1, §2

E. coli NIHJ JC-2 = assay: MIC, agar plate dilution method; format: cell-based; conditions: Escherichia coli, NIHJJC2; E. coli NIHJ JC-2; 37° C., 20 hours; read-out: Antimicrobial activity (MIC)
Experimental: as §1, §2

S. Pneumoniae Type 1 = assay: MIC, agar plate dilution method; format: cell-based; conditions: Streptococcus pneumoniae; S. Pneumoniae Type 1; 37° C., 20 hours; read-out: Antimicrobial activity (MIC)
Experimental: as §1, §2

H. influenzae Type b = assay: MIC, agar plate dilution method; format: cell-based; conditions: Haemophilus influenzae; H. influenzae Type b; 37° C., 20 hours; read-out: Antimicrobial activity (MIC)
Experimental: as §1, §2

S. aureus MS15009/pMS98 = assay: MIC, agar plate dilution method; format: cell-based; conditions: Staphylococcus aureus, MS15009/PMS98, 20 h, read-out: Antimicrobial activity (MIC)
Experimental: as §1, §2

K. pneumoniae PC1602 = assay: MIC, agar plate dilution method; format: cell-based; conditions: Klebsiella pneumoniae, 37° C., 20 hours, read-out: Antimicrobial activity (MIC)
Experimental: as §1, §2

S. aureus MS15026 = assay: MIC, agar plate dilution method; format: cell-based; conditions: Staphylococcus aureus, 37° C., 20 hours, read-out: Antimicrobial activity (MIC)
Experimental: as §1, §2

M. luteus ATCC9341 = assay: MIC, agar plate dilution method; format: cell-based; conditions: Micrococcus luteus; M. luteus ATCC9341; 37° C., 20 hours; read-out: Antimicrobial activity (MIC)
Experimental: as §1, §2

S. aureus MS15027 = assay: MIC, agar plate dilution method; format: cell-based; conditions: Staphylococcus aureus, 37° C., 20 hours, read-out: Antimicrobial activity (MIC)
Experimental: as §1, §2

S. aureus 209P JC-1 = assay: MIC, agar plate dilution method; format: cell-based; conditions: Staphylococcus aureus; S. aureus 209P JC-1; 37° C., 20 hours; read-out: Antimicrobial activity (MIC)
Experimental: as §1, §2

S. epidermidis ATCC14990 = assay: MIC, agar plate dilution method; format: cell-based; conditions: Staphylococcus epidermidis, 37° C., 20 hours, read-out: Antimicrobial activity (MIC)
Experimental: as §1, §2

S. aureus M133 = assay: MIC, agar plate dilution method; format: cell-based; conditions: Staphylococcus aureus, 37° C., 20 hours, read-out: Antimicrobial activity (MIC)
Experimental: as §1, §2

B. catarrhalis W-0506 = assay: MIC, agar plate dilution method; format: cell-based; conditions: Moraxella catarrhalis, W0506, 37° C., 20 hours, read-out: Antimicrobial activity (MIC)
Experimental: as §1, §2

H. influenzae 9334 = assay: MIC, agar plate dilution method; format: cell-based; conditions: Haemophilus influenzae; H. influenzae 9334; 37° C., 20 hours; read-out: Antimicrobial activity (MIC)
Experimental: as §1, §2

Compound | antimicrobial activity in vitro compared with MOM (test strains) | antimicrobial activity compared with LM-A7 (test strains) | antimicrobial activity on Gram-positive bacteria (Gram-positive bacteria) | MIC (S. Pyogenes Cook) | MIC (E. faecalis W-73) | MIC (B. catarrhalis W-0500) | MIC (S. aureus MS15009/pMS99) | MIC (S. pneumoniae IP692) | MIC (S. aureus M126) | MIC (E. coli NIHJ JC-2) | MIC (S. Pneumoniae Type 1) | MIC (H. influenzae Type b) | MIC (S. aureus MS15009/pMS98) | MIC (K. pneumoniae PC1602) | MIC (S. aureus MS15026) | MIC (M. luteus ATCC9341) | MIC (S. aureus MS15027) | MIC (S. aureus 209P JC-1) | MIC (S. epidermidis ATCC14990) | MIC (S. aureus M133) | further results
CO[C@@H]1[C@@H](O[C@@H]2O[C@H](C)[C@@H](O[C@H]3C[C@@](C)(OC)[C@@H](OCCC(C)C)[C@H](C)O3)[C@H](N(C)C)[C@H]2O)[C@@H](CC=O)C[C@@H](C)[C@@H](O)/C=C/C=C/C[C@@H](C)OC(=O)C[C@H]1O [(12)] | clearly much superior to MOM | comparable or superior | strong antimicrobial activity | 0.05 µg/mL (≈ 0.0636 µM) | 0.39 µg/mL (≈ 0.496 µM) | 0.39 µg/mL (≈ 0.496 µM) | > 100 µg/mL | 0.1 µg/mL (≈ 0.127 µM) | > 100 µg/mL | > 100 µg/mL | 0.1 µg/mL (≈ 0.127 µM) | 6.25 µg/mL (≈ 7.95 µM) | 0.2 µg/mL (≈ 0.254 µM) | > 100 µg/mL | > 100 µg/mL | 0.05 µg/mL (≈ 0.0636 µM) | 0.39 µg/mL (≈ 0.496 µM) | 0.1 µg/mL (≈ 0.127 µM) | 0.39 µg/mL (≈ 0.496 µM) | 0.39 µg/mL (≈ 0.496 µM) | Cmax ([1]; mouse, serum, 200 mg/kg, M. luteus bioassay, read-out: maximum concentration in the serum): 11500 ng/mL; maximum concentration in the serum, comparison in words ([1]; versus clarythromycin (CAM) or other 16-membered macrolides): comparable to that of CAM; MIC (B. catarrhalis W-0506): 0.39 µg/mL (≈ 0.496 µM); MIC (H. influenzae 9334): 1.56 µg/mL (≈ 1.98 µM)
CO[C@@H]1[C@@H](O[C@@H]2O[C@H](C)[C@@H](O[C@H]3C[C@@](C)(OC)[C@@H](OCc4ccccc4)[C@H](C)O3)[C@H](N(C)C)[C@H]2O)[C@@H](CC=O)C[C@@H](C)[C@@H](O)/C=C/C=C/C[C@@H](C)OC(=O)C[C@H]1O [(16)] | clearly much superior to MOM | comparable or superior | strong antimicrobial activity | 0.1 µg/mL (≈ 0.124 µM) | 0.39 µg/mL (≈ 0.484 µM) | 0.78 µg/mL (≈ 0.968 µM) | > 100 µg/mL | 0.1 µg/mL (≈ 0.124 µM) | > 100 µg/mL | > 100 µg/mL | 0.1 µg/mL (≈ 0.124 µM) | 6.25 µg/mL (≈ 7.75 µM) | 0.2 µg/mL (≈ 0.248 µM) | > 100 µg/mL | > 100 µg/mL | 0.05 µg/mL (≈ 0.062 µM) | 0.2 µg/mL (≈ 0.248 µM) | 0.1 µg/mL (≈ 0.124 µM) | 0.2 µg/mL (≈ 0.248 µM) | 0.39 µg/mL (≈ 0.484 µM) | MIC (B. catarrhalis W-0506): 0.78 µg/mL (≈ 0.968 µM); MIC (H. influenzae 9334): 3.13 µg/mL (≈ 3.88 µM)
